Tests used:
Assay in all cases: relative viability (nuclei count vs DMSO), 5 days (fraction); higher = more cells survive
Tozasertib + Lapatinib = compound: Cc1cc(Nc2cc(N3CCN(C)CC3)nc(Sc3ccc(NC(=O)C4CC4)cc3)n2)n[nH]1 [Tozasertib] + CS(=O)(=O)CCNCc1ccc(-c2ccc3ncnc(Nc4ccc(OCc5cccc(F)c5)c(Cl)c4)c3c2)o1 [Lapatinib] (partner 2 µM)
In short: (§1)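 A single step with final 0.05% Triton X-100, 1% formaldehyde and 1 ug/ml Hoechst fixed the cells and stained nuclei 5 days after treatment. Lung cancer cell lines in 1536-well plates had been treated by pin tool the day after seeding with one drug alone or a fixed anchor-drug dose plus five library-drug doses (not always all listed) in √10 steps, and nuclei were counted on 4× images. Relative viability is the ratio of nuclei in treated wells to nuclei in vehicle wells, taken as the median of duplicate plates.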

Tozasertib + Alpelisib = compound: Cc1cc(Nc2cc(N3CCN(C)CC3)nc(Sc3ccc(NC(=O)C4CC4)cc3)n2)n[nH]1 [Tozasertib] + Cc1nc(NC(=O)N2CCC[C@H]2C(N)=O)sc1-c1ccnc(C(C)(C)C(F)(F)F)c1 [Alpelisib] (partner 2 µM)
In short: as §1

Tozasertib + Dasatinib = compound: Cc1cc(Nc2cc(N3CCN(C)CC3)nc(Sc3ccc(NC(=O)C4CC4)cc3)n2)n[nH]1 [Tozasertib] + Cc1nc(Nc2ncc(C(=O)Nc3c(C)cccc3Cl)s2)cc(N2CCN(CCO)CC2)n1 [Dasatinib] (partner 0.075 µM)
In short: as §1

Tozasertib + Decitabine = compound: Cc1cc(Nc2cc(N3CCN(C)CC3)nc(Sc3ccc(NC(=O)C4CC4)cc3)n2)n[nH]1 [Tozasertib] + Nc1ncn([C@H]2C[C@H](O)[C@@H](CO)O2)c(=O)n1 [Decitabine] (partner 2 µM)
In short: as §1

Tozasertib + Vorinostat = compound: Cc1cc(Nc2cc(N3CCN(C)CC3)nc(Sc3ccc(NC(=O)C4CC4)cc3)n2)n[nH]1 [Tozasertib] + O=C(CCCCCCC(=O)Nc1ccccc1)NO [Vorinostat] (partner 1 µM)
In short: as §1

Cell Line | relative viability (Tozasertib + Lapatinib; first compound 0.004 µM) | relative viability (Tozasertib + Lapatinib; first compound 0.01265 µM) | relative viability (Tozasertib + Lapatinib; first compound 0.04 µM) | relative viability (Tozasertib + Lapatinib; first compound 0.1265 µM) | relative viability (Tozasertib + Alpelisib; first compound 0.004 µM) | relative viability (Tozasertib + Alpelisib; first compound 0.01265 µM) | relative viability (Tozasertib + Alpelisib; first compound 0.04 µM) | relative viability (Tozasertib + Dasatinib; first compound 0.004 µM) | relative viability (Tozasertib + Dasatinib; first compound 0.01265 µM) | relative viability (Tozasertib + Dasatinib; first compound 0.04 µM) | relative viability (Tozasertib + Dasatinib; first compound 0.1265 µM) | relative viability (Tozasertib + Decitabine; first compound 0.004 µM) | relative viability (Tozasertib + Decitabine; first compound 0.01265 µM) | relative viability (Tozasertib + Decitabine; first compound 0.04 µM) | relative viability (Tozasertib + Decitabine; first compound 0.1265 µM) | relative viability (Tozasertib + Vorinostat; first compound 0.004 µM) | relative viability (Tozasertib + Vorinostat; first compound 0.01265 µM) | relative viability (Tozasertib + Vorinostat; first compound 0.04 µM) | relative viability (Tozasertib + Vorinostat; first compound 0.1265 µM) | relative viability (Tozasertib + Alpelisib; first compound 0.1265 µM)
NCI-H1793 | 0.699 | 0.598 | 0.573 | 0.364 | 0.578 | 0.699 | 0.872 | 0.387 | 0.36 | 0.377 | 0.285 | 0.555 | 0.495 | 0.508 | 0.397 | 0.785 | 0.654 | 0.931 | 0.267 | 
NCI-H1915 | 1.05 | 0.968 | 0.897 | 0.688 | 1.07 | 1.04 | 1.02 | 0.376 | 0.298 | 0.313 | 0.264 | 0.268 | 0.263 | 0.236 | 0.261 | 0.505 | 0.564 | 0.512 | 0.439 | 0.95
NCI-H1944 | 0.869 | 0.728 | 0.772 | 0.339 | 0.785 | 0.75 | 0.891 | 0.217 | 0.217 | 0.206 | 0.147 | 0.404 | 0.396 | 0.403 | 0.349 | 0.557 | 0.519 | 0.427 | 0.204 | 0.495
NCI-H1975 | 0.886 | 0.876 | 0.903 | 0.429 | 0.747 | 0.749 | 0.763 | 0.492 | 0.407 | 0.342 | 0.308 | 0.371 | 0.462 | 0.382 | 0.36 | 0.706 | 0.706 | 0.72 | 0.583 | 0.586
NCI-H1993 | 0.804 | 0.82 | 0.829 | 0.772 | 0.63 | 0.795 | 0.727 | 0.729 | 0.456 | 0.636 | 0.537 | 0.549 | 0.542 |  | 0.574 | 0.754 | 0.824 | 1.11 | 0.408 | 0.519
NCI-H2009 | 1.01 | 0.512 | 0.885 | 0.361 | 1.18 | 1.17 | 1.15 | 0.307 | 0.292 | 0.266 | 0.213 | 0.401 | 0.352 | 0.416 | 0.359 | 0.772 | 0.696 | 0.735 | 0.578 | 1.14
NCI-H2023 | 0.796 | 1.01 | 0.947 | 0.123 | 0.645 | 0.541 | 0.539 | 0.562 | 0.506 | 0.572 | 0.318 | 0.223 | 0.237 | 0.217 | 0.169 | 0.547 | 0.674 | 0.518 | 0.16 | 0.628
NCI-H2085 | 0.784 | 0.715 | 0.774 | 0.446 | 0.999 | 0.963 | 0.873 | 0.235 | 0.231 | 0.244 | 0.228 | 0.578 | 0.508 | 0.538 | 0.485 | 0.797 | 0.714 |  | 0.603 | 0.804

— the supplement of paper PMC10307832
